Experimental data as given in patent US8846880B2, “Synthetic analogues of phosphatidyl-myo-inositol mannosides with an inhibitory activity of the inflammatory response” (Centre National de la Recherche Scientifique—CNRS—, priority 2008, dated 2014).

Columns and labels:
TNF-α = TNF-α secretion by LPS-stimulated bone-marrow-derived primary macrophages (ELISA); format: cell-based, mouse; settings: LPS 100 ng/ml, 24 hours
Description: (§1) Murine bone marrow cells were obtained from femurs of wild-type mouse lines. The cells obtained were cultured (10^6/ml) for 7 days in DMEM medium (Dulbecco's modified Eagle's medium) supplemented with 20% of horse serum and 30% of L929 cell-conditioned medium. Three days after renewal of the medium, the cell preparation comprises a homogeneous population of macrophages.
(§2) The macrophages derived from the bone marrow of wild-type mice were cultured on 96-well culture plates in the proportion of 10^5 cells per well, and were then stimulated with LPS (100 ng/ml, Escherichia. coli, serotype O111:B4, Sigma) with or without PIM analog (1-10 μg/ml). All the freeze-dried PIM analog preparations used are solubilized in DMSO and added to the cultures at a noncytotoxic maximum final concentration of 1%.
(§3) After stimulation for 24 hours, the culture supernatants were collected and analyzed for their content of TNF-α, IL-6, IL-12p40 and KC cytokines by ELISA (Duoset, R&D) and for their nitrite content by means of the Griess reaction.
(§4) The macrophages derived from the bone marrow of wild-type mice were cultured on 96-well culture plates in a proportion of 10^5 cells per well, and then stimulated with LPS (100 ng/ml, Escherichia coli, serotype […], Sigma) with isoPIM1C16C18 (SFPIM219) (1-10 μg/ml) or a DMSO control. The preparation of freeze-dried SFPIM219 which is used is solubilized in DMSO and added to the cultures at a noncytotoxic maximum final concentration of 1%.
(§5) After stimulation for 24 hours, the culture supernatents were collected and analyzed for their content of cytokines TNF-α or IL-12p40 by ELISA (R&D Duoset, Minneapolis, Mo.). The results correspond to the mean±SD of n=2 mice per genotype.
(§6) The macrophages derived from the bone marrow of wild-type mice were cultured on 96-well culture plates in a proportion of 10^5 cells per well, and then stimulated with LPS (100 ng/ml, Escherichia coli, serotype O111:B4, Sigma) with PIM1 (SFPIM145), isoPIM1C16C18 (SFPIM219) or the compounds PIM-2-mimNCOCF3 (SFPIM324 t2) and PIM-2-mimNH(SFPIM324 t8) (titrated at 1, 3, 10, 30 μg/ml) or DMSO controls. The freeze-dried SFPIM145, SFPIM219, SFPIM324 t2 and SFPIM324 t8 preparations that were used are solubilized in DMSO and added to the cultures at a noncytotoxic maximum final concentration of 1%.

macrophages = assay: MTT cytotoxicity / cell viability assay on the same macrophages; format: cell-based, mouse
IL-6 = IL-6 expression by primary macrophages stimulated with LPS with or without IFNγ (ELISA); format: cell-based, mouse; settings: LPS in the presence or absence of interferon-γ, 10 μg/ml (FIG. 5)
Description: as §1, §2, §3

IL-12p40 = IL-12p40 secretion by LPS-stimulated primary macrophages (ELISA); format: cell-based, mouse
Description: as §1, §2, §3, §4, §5, §6

KC [1] = assay: Chemokine KC production by LPS-stimulated macrophages (ELISA); format: cell-based, mouse; settings: 10 μg/ml (FIG. 7)
Description: as §1, §2, §3

C57BL/6 mice [2] = assay: In vivo model of respiratory distress: Penh by noninvasive plethysmography after intranasal LPS; set-up: species or system mouse
Description: (§7) C57BL/6 mice received the vehicle alone (saline with 1.25% DMSO) or LPS (1 μg per mouse) from Escherichia coli (serotype […]; Sigma, St Louis, Mo., USA) in the absence or in the presence of PIM1 (SFPIM135) or of isoPIM1-2C16 (SFPIM91) (50 μg/mouse), applied by nasal instillation in a volume of 40 μl under light anesthesia with ketamine-xylazine.
The resistance of the respiratory tracts was evaluated by noninvasive plethysmography over a period of 3 hours after the application of LPS. Awake mice were placed in plethysmography chambers (EMKA Technologies, Paris, France). The increase in respiratory pause (Penh), as measurement of respiratory discomfort, was recorded and analyzed using the Datanalyst Software (EMKA Technologies, Paris, France), and expressed as mean±SEM of Penh of n=2-3 individual mice per group.
TNF is essential for LPS-induced acute respiratory dysfunction, as has been shown in TNF-deficient mice. In order to determine the potential in vivo activity of PIM1 (SFPIM135) and isoPIM1-2C16 (SFPIM91), they were tested for their inhibitory activity in a murine model of acute pulmonary inflammation and respiratory distress induced by intranasal application of LPS (1 μg/mouse).
C57BL/6 mice received an intranasal application of 1 μg of LPS, and Penh was recorded for 200 minutes using noninvasive plethysmography. […]

C57BL/6 mice [3] = assay: Inflammatory cell recruitment in bronchoalveolar lavage after intranasal LPS; format: in vivo, mouse
Description: as §7
(§8) The BAL fluid is collected by canulating the trachea and washing the lungs four times with 0.5 ml of cold PBS. After centrifugation at 400×g for 10 min at 4° C., the supernatant from the first lavage is stored at −70° C. for the cytokine analysis. Pools of cell pellets are counted with Trypan blue (Sigma) in a hemocytometer cell. For differential counting, the cells are stained with Diff-Quik Staining (Merz & Dade AG., Dudingen, Switzerland). Two times one hundred cells are counted.

KC [4] = assay: KC in bronchoalveolar lavage fluid after intranasal LPS (ELISA); format: in vivo; settings: 24 hours after intranasal 1 μg LPS, coadministration 50 μg/mouse (FIG. 10)
Description: as §7, §8
(§9) The TNF and KC concentrations were evaluated by enzyme-linked immunosorbent assay (ELISA) in accordance with the instructions of the manufacturer (R&D Duoset, Minneapolis, Mo.).
Neutrophil recruitment depends on various factors, including chemokine KC, even though it is not critically dependent on TNF [23]. In FIG. 10, the treated mice are sacrificed 24 hours after the intranasal application of 1 μg of LPS and the bronchoalveolar fluid is analyzed in order to determine the chemokine KC content. […]

TNF = TNF in bronchoalveolar lavage fluid after intranasal LPS (ELISA); format: in vivo; settings: coadministration 50 μg/mouse (FIG. 11)
Description: as §7, §8, §9

[5] = tested on: inflammatory cytokines and chemokines; assay: Additional experiments: inflammatory cytokines and chemokines in lungs exposed to endotoxins; format: in vivo
[6] = titrated at 1, 3, 10, 30 μg/ml (FIG. 15)

## 1-O-α-D-mannopyranosyl-2-O—[((S)-2,3-dipalmitoyloxy-propyl)phosphoryl]-D-myo-inositol [isoPIM1-2C16]
TNF-α; titrated at 1, 3 and 10 μg/ml (FIG. 3)
  TNF-α synthesis induced in LPS-stimulated macrophages: strongly inhibits
macrophages; titrated at 1, 3 and 10 μg/ml (FIG. 4)
  cytotoxicity (MTT): absence of cytotoxicity
IL-6
  expression of IL-6 by the macrophages: also inhibited
IL-12p40; 1 μg/ml (FIG. 6)
  IL-12p40 secretion in response to LPS: inhibition
KC [1]
  production of chemokine KC: more strongly
C57BL/6 mice [2]; 50 μg/mouse with LPS 1 μg/mouse, nasal instillation (FIG. 8)
  enhancement of Penh induced by LPS: even more pronounced
C57BL/6 mice [2]; summary of the in vivo experiments
  pulmonary inflammation and resistance of the respiratory tracts in response to local endotoxins: marked inhibition
C57BL/6 mice [3]; 18 hours after application of LPS, 50 μg/mouse intranasal (FIG. 9)
  number of inflammatory cells detected in the BAL: partially reduced
C57BL/6 mice [3]; BAL, observed in 2 mice out of 3, 50 μg/mouse intranasal
  reduction in the number of neutrophils: ≤ 70%
KC [4]
  secretion of KC in the bronchoalveolar space: greatly reduced
TNF
  release of TNF in the bronchoalveolar space: more strongly
[5]
  expression of several other inflammatory cytokines and chemokines in lungs exposed to endotoxins: decrease in expression

## CCCCCCCCCCCCCCCCCC(=O)OC[C@@H](COP(=O)(O)OC1C(O[C@H]2O[C@H](CO)[C@@H](O)[C@H](O)[C@@H]2O)CN(C(=O)C(F)(F)F)CC1O[C@H]1O[C@H](CO)[C@@H](O)[C@H](O)[C@@H]1O)OC(=O)CCCCCCCCCCCCCCC (stereo partly shown) [PIM-2-mimNCOCF3]
TNF-α; [6]
  TNF secretion: strongly inhibit
IL-12p40; 10 μg/ml (FIG. 17)
  IL-12p40 secretion in response to LPS: virtually abolished

## CCCCCCCCCCCCCCCCCC(=O)OC[C@@H](COP(=O)(O)O[C@@H]1[C@@H](O[C@H]2O[C@H](CO)[C@@H](O)[C@H](O)[C@@H]2O)CNC[C@H]1O[C@H]1O[C@H](CO)[C@@H](O)[C@H](O)[C@@H]1O)OC(=O)CCCCCCCCCCCCCCC [PIM-2-mimNH]
TNF-α; [6]
  TNF secretion: inhibit less strongly
macrophages; at the highest concentration (FIG. 16)
  cytotoxicity (MTT cell viability): a certain cytotoxicity
IL-12p40; 10 μg/ml (FIG. 17)
  IL-12p40 secretion in response to LPS: partially inhibit

## CCCCCCCCCCCCCCCCCC(=O)OC[C@H](COP(=O)(O)O[C@@H]1[C@H](O)[C@@H](O)[C@H](O)[C@@H](O)[C@@H]1OC1O[C@H](CO)[C@@H](O)[C@H](O)[C@@H]1O)OC(=O)CCCCCCCCCCCCCCC (stereo partly drawn) [isoPIM1-C16C18, 1-O-α-D-mannopyranosyl-2-O—[((S)-2-O-hexadecanoyl-3-O-octadecanoylpropyl)phosphoryl]-D-myo-inositol]
TNF-α; 1-10 μg/ml (FIG. 12)
  TNF secretion: strongly inhibits
TNF-α; [6]
  TNF secretion: strongly inhibit
macrophages; titrated at 1, 3 and 10 μg/ml (FIG. 13)
  cytotoxicity on macrophages (MTT): lack of cytotoxicity
IL-12p40; 1 μg/ml (FIG. 14)
  IL-12p40 secretion in response to LPS: greatly inhibited
IL-12p40; 10 μg/ml (FIG. 17)
  IL-12p40 secretion in response to LPS: virtually abolished
